Data published in ChEMBL document CHEMBL1150158, “Lyngbyastatin 1 and Ibu-epilyngbyastatin 1: synthesis, stereochemistry, and NMR line broadening” (J Nat Prod, 2002).
≈ marks a conversion by molar mass, not a printed value. Numbered stars: 1 amine (or outer) side, 2 acyl side, 3 side chain; on linkers, the order of the positions; unused ones are H or OH. Square brackets hold non-standard residues; d marks the D form. Peptide text beside a SMILES is read from it. X1 = CC[C@H](C)[C@H](OC(=O)[C@@H](C)[C@@H](CC)N[*:1])C(=O)[*:2]; X3 = C[C@@H](N[*:1])C(=O)C(C)(C)C(=O)[*:2]; X2 = C[C@H](N[*:1])C(=O)C(C)(C)C(=O)[*:2]; NMeY = CN[C@@H](Cc1ccc(O)cc1)C(=O)O; NMeL = CN[C@@H](CC(C)C)C(=O)O; NMeV = CN[C@H](C(=O)O)C(C)C

Experiments:
[1] = test system: NCI-H460; assay: Growth inhibition of human NCI-H460 cells; assay type: functional
[2] = test system: DU-145; assay: Growth inhibition of human DU145 cells; assay type: functional
[3] = Induction of rabbit muscle actin polymerization after 1 hr; set-up: species or system Oryctolagus cuniculus, Muscle tissue

| Compound | GI50 [1] [µg/mL] | GI50 [2] [µg/mL] | EC50 [3] [µM] |
| --- | --- | --- | --- |
| CC[C@H](C)[C@@H]1OC(=O)[C@@H](C)[C@@H](CC)NC(=O)[C@H](C)NC(=O)C(C)(C)C(=O)[C@@H](C)NC(=O)[C@H](Cc2ccc(OC)cc2)N(C)C(=O)[C@H](C(C)C)N(C)C(=O)CNC(=O)[C@H](CC(C)C)N(C)C(=O)CNC1=O (cyclo(A[X1]G[NMeL]G[NMeV][NMeY](Me)[X3])) | 0.031 (≈ 0.0315 µM) | 0.24 (≈ 0.244 µM) |  |
| CC[C@H](C)[C@@H]1OC(=O)[C@@H](C)[C@@H](CC)NC(=O)[C@H](C)NC(=O)C(C)(C)C(=O)[C@H](C)NC(=O)[C@H](Cc2ccc(OC)cc2)N(C)C(=O)[C@H](C(C)C)N(C)C(=O)CNC(=O)[C@H](CC(C)C)N(C)C(=O)CNC1=O [DOLASTATIN 11] (cyclo(A[X1]G[NMeL]G[NMeV][NMeY](Me)[X2])) | 0.0013 (≈ 0.00132 µM) | 0.22 (≈ 0.223 µM) | 9.5 |
